Assay results reported in patent US12172975B2, “1H-indazole carboxamides as receptor-interacting protein kinase 1 inhibitors (RIPK1)” (BRISTOL-MYERS SQUIBB COMPANY, priority 2018, dated 2024).
Structures can show the parent of a compound that is named as a salt. Where two headings read alike, the source gives them in different places.

Legend:
[1] = tested on: MLKL phosphorylation in HT29-L23 human colorectal adenocarcinoma cells; test: MLKL Phosphorylation High-Content Assay; assay type: cell-based; details: 6 h, necroptosis induced with TNFα, SMAC mimetic and Z-VAD, read-out: pMLKL (IC50)
Summary of the method: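 HT29-L23 cells were induced to necroptosis with TNFα (35 ng/mL), SMAC mimetic (700 nM) and Z-VAD (140 nM) for 6 h at 37 °C. Phospho-MLKL (S358) immunofluorescence was imaged and quantified per cell; maximal inhibition set by Nec-1s (6.25 μM), and IC50/Ymax from 4-parameter logistic fit.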

[2] = target: His-GST-TVMV-hRIPK1 (1-324) (Homo sapiens (Human), UniProt Q13546); test: RIPK1 HTRF Binding Assay; details: read-out: RIPK1 HTRF (IC50); FRET probe displacement, 1 h at rt
Sequence of His-GST-TVMV-hRIPK1 (1-324) (Q13546 1-324): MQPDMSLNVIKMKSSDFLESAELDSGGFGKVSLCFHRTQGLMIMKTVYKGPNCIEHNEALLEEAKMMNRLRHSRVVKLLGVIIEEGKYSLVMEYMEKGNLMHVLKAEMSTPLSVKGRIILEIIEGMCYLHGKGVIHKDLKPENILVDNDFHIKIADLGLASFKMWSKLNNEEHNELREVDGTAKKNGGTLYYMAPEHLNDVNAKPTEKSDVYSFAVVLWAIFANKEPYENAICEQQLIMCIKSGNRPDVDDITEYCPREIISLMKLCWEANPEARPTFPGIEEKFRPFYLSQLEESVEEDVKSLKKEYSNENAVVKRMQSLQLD

Row | Compound | IC50 ([1]; Homo sapiens) [µM] | IC50 [2] [µM] | IC50 [1] [µM]
1 | COc1ncc(-c2ccc3c(C(=O)NC4CCC(O)CC4)n[nH]c3c2)cc1C(=O)NCc1ccccc1OC(F)(F)F (stereo not shown) [Example 189, 6-[6-methoxy-5-({[2-(trifluoro-methoxy)phenyl]methyl}-carbamoyl)pyridin-3-yl]-N-[(1r,4r)-4-hydroxycyclohexyl]-1H-indazole-3-carboxamide] | 0.03 | 0.0096 | 
2 | CNC(=O)c1n[nH]c2cc(-c3cnc(OC)c(C(=O)NC4CCCC(C(=O)N(C)C)C4)c3)ccc12 (stereo not shown) [Example 120, 6-(5-{[3-(dimethylcarbam-oyl)cyclohexyl]carbamoyl}-6-methoxypyridin-3-yl)-N-methyl-1H-indazole-3-carbox-amide] |  | 0.011 | 0.1
3 | [2H]C([2H])([2H])Oc1ncc(-c2ccc3c(C(=O)NC4CC4)n[nH]c3c2)cc1C(=O)NCC(C)(C)C(=O)OC(C)(C)C [Example 200, tert-butyl 3-({5-[3-(cyclopropyl-carbamoyl)-1H-indazol-6-yl]-2-(deutero)methoxypyridin-3-yl}-formamido)-2,2-dimethyl-propanoate] | 0.079 | 0.13 | 
4 | [2H]C([2H])([2H])NC(=O)c1n[nH]c2cc(-c3cnc(OC)c(C(=O)NCC(C)(C)C(=O)OC(C)(C)C)c3)ccc12 [Example 149, tert-butyl 3-[(2-methoxy-5-{3-[(deutero)methylcarbamoyl]-1H-indazol-6-yl}pyridin-3-yl)-formamido]-2,2-dimethyl-propanoate] | 0.074 | 0.033 | 
5 | [2H]C([2H])([2H])NC(=O)c1n[nH]c2cc(-c3cnc(OC([2H])([2H])[2H])c(C(=O)N[C@H](C)c4ccccc4OC(F)(F)F)c3)ccc12 [Example 7, (R)-6-(6-(methoxy-d3)-5-((1-(2-(trifluoromethoxy)phenyl)ethyl)carbamoyl)pyridin-3-yl)-N-(methyl-d3)-1H-indazole-3-carboxamide] | 0.0046 | 0.0085 | 
6 | COc1ncc(-c2ccc3c(C(=O)NC4CC(=O)N(C)C4)n[nH]c3c2)cc1C(=O)NCc1ccccc1OC(F)(F)F (stereo not shown) [Example 187, 6-[6-methoxy-5-({[2-(trifluoro-methoxy)phenyl]methyl}-carbamoyl)pyridin-3-yl]-N-(1-methyl-5-oxopyrrolidin-3-yl)-1H-indazole-3-carboxamide, TFA] | 0.078 | 0.028 | 
7 | CNC(=O)c1n[nH]c2cc(-c3cnc(OC)c(C(=O)NCc4cc(C(F)(F)F)ccc4OC)c3)ccc12 [Example 76, 6-[6-methoxy-5-({[2-methoxy-5-(trifluoromethyl)phenyl]-methyl}carbamoyl)pyridin-3-yl]-N-methyl-1H-indazole-3-carboxamide] | 0.1 | 0.098 | 
8 | CNC(=O)c1n[nH]c2cc(-c3cnc(OC)c(C(=O)NCc4cc(F)cc(F)c4OCC4CC4)c3)ccc12 [Example 128, 6-[5-({[2-(cyclopropylmeth-oxy)-3,5-difluorophenyl]-methyl}carbamoyl)-6-meth-oxypyridin-3-yl]-N-methyl-1H-indazole-3-carboxamide] | 0.0031 | 0.0023 | 
9 | CNC(=O)c1n[nH]c2cc(-c3cc(C(=O)NCc4cccc(OC(F)(F)F)c4)c(OC)nc3C)ccc12 [Example 160, 6-[6-methoxy-2-methyl-5-({[3-(trifluoromethoxy)-phenyl]methyl}carbamoyl)-pyridin-3-yl]-N-methyl-1H-indazole-3-carboxamide] | 0.12 | 0.027 | 
10 | [2H]C([2H])([2H])NC(=O)c1n[nH]c2cc(-c3cnc(OC)c(C(=O)NCCC(=O)OC(C)(C)C)c3)ccc12 [Example 150, tert-butyl 3-[(2-methoxy-5-{3-[(deutero)methylcarbamoyl]-1H-indazol-6-yl}pyridin-3-yl)-formamido]propanoate] | 0.11 | 0.032 | 
11 | CNC(=O)c1n[nH]c2cc(-c3cnc(OC)c(C(=O)NCc4ccccc4OC4CCC(C)C4)c3)ccc12 (stereo not shown) [Example 131, 6-{6-methoxy-5-[({2-[(3-methylcyclopentyl)oxy]-phenyl}methyl)carbamoyl]-pyridin-3-yl}-N-methyl-1H-indazole-3-carboxamide] | 0.0023 | 0.01 | 
12 | CNC(=O)c1n[nH]c2cc(-c3cnc(OC)c(C(=O)NCCCOC4CCCCC4)c3)ccc12 [Example 62, 6-(5-{[3-(cyclohexyloxy)-propyl]carbamoyl}-6-methoxy-pyridin-3-yl)-N-methyl-1H-indazole-3-carboxamide] | 0.026 | 0.0068 | 
13 | CNC(=O)c1n[nH]c2cc(-c3cc(C(=O)NC(C)c4cccc(OC(F)(F)F)c4)c(C)nc3C)ccc12 (single isomer, unassigned) [Example 164, 6-[2,6-dimethyl-5-({1-[3-(trifluoromethoxy)phenyl]-ethyl}carbamoyl)pyridin-3-yl]-N-methyl-1H-indazole-3-carboxamide] |  | 0.0054 | 0.0037
14 | CNC(=O)c1n[nH]c2cc(-c3cnc(OC)c(C(=O)NCC4(COc5ccccc5)CC4)c3)ccc12 [Example 68, 6-[6-methoxy-5-({[1-(phenoxy-methyl)cyclopropyl]methyl}-carbamoyl)-pyridin-3-yl]-N-methyl-1H-indazole-3-carbox-amide] |  | 0.0046 | 0.028
15 | [2H]C([2H])([2H])NC(=O)c1n[nH]c2cc(-c3cnc(OC)c(C(=O)NC(C)c4ccccc4OC(F)(F)F)c3)ccc12 (stereo not shown) [Example 152, 6-[6-methoxy-5-({1-[2-(tri-fluoromethoxy)phenyl]ethyl}-carbamoyl)pyridin-3-yl]-N-(deutero)methyl-1H-indazole-3-carboxamide] | 0.0033 | 0.02 | 
16 | CCN(CC)C1CCC(NC(=O)c2n[nH]c3cc(-c4cnc(OC)c(C(=O)NCc5ccccc5OC(F)(F)F)c4)ccc23)CC1 (stereo not shown) [Example 184, N-[4-(diethylamino)cyclohexyl]-6-[6-methoxy-5-({[2-(trifluoro-methoxy)phenyl]methyl}carbam-oyl)pyridin-3-yl]-1H-indazole-3-carboxamide, TFA] | 0.088 | 0.007 | 
17 | COc1ncc(-c2ccc3c(C(=O)NC4CC(=O)N(C(C)C)C4)n[nH]c3c2)cc1C(=O)NCc1ccccc1OC(F)(F)F (stereo not shown) [Example 181, 6-[6-methoxy-5-({[2-(trifluoro-methoxy)phenyl]methyl}carbam-oyl)pyridin-3-yl]-N-[5-oxo-1-(propan-2-yl)pyrrolidin-3-yl]-1H-indazole-3-carboxamide, TFA] | 0.082 | 0.027 | 
18 | CNC(=O)c1n[nH]c2cc(-c3cc(C(=O)NCC4CCCC4(C)C)c(OC)nc3C)ccc12 (stereo not shown) [Example 159, 6-(5-{[(2,2-dimethylcyclo-pentyl)methyl]carbamoyl}-6-methoxy-2-methyl-pyridin-3-yl)-N-methyl-1H-indazole-3-carboxamide] | 0.11 | 0.034 | 
19 | CNC(=O)c1n[nH]c2cc(-c3cnc(OC)c(C(=O)NCC4CCCOC4c4ccccc4)c3)ccc12 (stereo not shown) [Example 79, 6-(6-methoxy-5-{[(2-phenyl-oxan-3-yl)methyl]carbamoyl}-pyridin-3-yl)-N-methyl-1H-indazole-3-carboxamide] | 0.021 | 0.0018 | 
20 | CNC(=O)c1n[nH]c2cc(-c3cnc(C)c(C(=O)NC(C)c4cccc(OC(F)(F)F)c4)c3)ccc12 (single isomer, unassigned) [Example 156, N-methyl-6-[6-methyl-5-({1-[3-(tri-fluoromethoxy)phenyl]ethyl}car-bamoyl)pyridin-3-yl]-1H-indazole-3-carboxamide] |  | 0.0037 | 0.0079
21 | CNC(=O)c1n[nH]c2cc(-c3cnc(C)c(C(=O)N[C@H]4CC[C@@H](c5ccccc5)C4)c3)ccc12 [Example 154, N-methyl-6-(6-methyl-5-{[(1S,3R)-3-phenylcyclopentyl]carbamoyl}-pyridin-3-yl)-1H-indazole-3-carbox-amide] |  | 0.0029 | 0.058
22 | CNC(=O)c1n[nH]c2cc(-c3cnc(OC)c(C(=O)NCc4ccccc4NC(=O)OC(C)(C)C)c3)ccc12 [Example 73, tert-butyl-N-{2-[({2-methoxy-5-[3-(methylcarbamoyl)-1H-indazol-6-yl]pyridin-3-yl}-formamido)methyl]phenyl}-carbamate] | 0.12 | 0.0047 | 
23 | CNC(=O)c1n[nH]c2cc(-c3cnc(OC)c(C(=O)NC4CCCC(Oc5ccccc5)C4)c3)ccc12 (stereo not shown) [Example 118, 6-{6-methoxy-5-[(3-phenoxy-cyclohexyl)carbamoyl]pyridin-3-yl}-N-methyl-1H-indazole-3-carboxamide] | 0.0026 | 0.0062 | 
24 | CNC(=O)c1n[nH]c2cc(-c3cnc(OC)c(-c4nnn(Cc5ccccc5)n4)c3)ccc12 [Example 20, 6-[5-(2-benzyl-2H-1,2,3,4-tetrazol-5-yl)-6-methoxypyridin-3-yl]-N-methyl-1H-indazole-3-carboxamide] | 0.027 | 0.066 | 
25 | CNC(=O)c1n[nH]c2cc(-c3cnc(OC)c(C(=O)NCc4cccnc4OCC4CCC4)c3)ccc12 [Example 112, 6-[5-({[2-(cyclobutylmeth-oxy)pyridin-3-yl]methyl}-carbamoyl)-6-methoxypyridin-3-yl]-N-methyl-1H-indazole-3-carboxamide] | 0.0076 | 0.0048 | 
26 | CNC(=O)c1n[nH]c2cc(-c3cnc(OC)c(C(=O)NCC4(C(=O)OC5CCCC5)CC4)c3)ccc12 [Example 140, cyclopentyl 1-[({2-methoxy-5-[3-(methylcarbamoyl)-1H-indazol-6-yl]pyridin-3-yl}-formamido)methyl]cyclopro-pane-1-carboxylate] |  | 0.0069 | 0.018
